Molecular target: human recombinant H-PGDS (Homo sapiens, UniProt O60760)
Experiment: Fluorescence Intensity h-PGDS TBA Enzyme Assay
Format: biochemical
Conditions: 1:175,000 human recombinant H-PGDS, highest inhibitor concentration typically 1 μM
Procedure: Fluorescence Intensity h-PGDSTBA Enzyme Assay
Prostaglandin D Synthase (PGDS) converts the substrate prostaglandin H2 (PGH2) to prostaglandin D2. The depletion of PGH2 was measured via an Fe(II) reduction of the remaining PGH2 to malondialdehyde (MDA) and 12-HHT. The enzyme assay is based on the quantitative formation of a fluorescent complex from the non-fluorescent compounds MDA and 2-thiobarbituric acid (TBA), substantially as described in U.S. patent application publication US-2004/152148 by Lombardt.
The enzyme assay (31 μls) contained 100 mM Tris base pH 8.0, 100 μM MgCl2, 0.1 mg/ml IgG Rabbit serum, 5.0 μM PGH2 (Cayman; ethanol solution, #17020), 2.5 mM L-Glutathione (Sigma; reduced form #G4251), 1:175,000 human recombinant H-PGDS (from 1 mg/ml), 0.5% DMSO and inhibitor (varying concentration). Three μls of diluted inhibitor (dissolved in DMSO) was plated into a 384-well assay plate followed by a 25 μl addition of an enzyme solution containing h-PGDS, Tris, MgCl2, IgG and L-Glutathione. After preincubation of inhibitor and enzyme solution for 10 minutes at room temperature, the reaction was initiated with a 3 μl addition of substrate solution in 10 mM HCl. The reaction was terminated after 42 second by the addition (3 μl) of stop buffer containing FeCl2 and citric acid. After addition of 45.5 μls of TBA plates were heated for one hour in a 70 C oven. Plates were cooled at room temperature overnight and read on a plate reader the next day with excitation @ 530 nm and emission @ 565 nm.
IC50's of inhibitors were calculated with a 4-parameter fit using 11 inhibitor concentrations in duplicate with 3-fold serial dilutions. Controls on each plate included no inhibitor (zero % effect) and an inhibitor 10-fold in excess of its' IC50 (100% effect). The highest inhibitor concentration tested was typically 1 μM.

human recombinant H-PGDS, sequence (O60760 whole entry): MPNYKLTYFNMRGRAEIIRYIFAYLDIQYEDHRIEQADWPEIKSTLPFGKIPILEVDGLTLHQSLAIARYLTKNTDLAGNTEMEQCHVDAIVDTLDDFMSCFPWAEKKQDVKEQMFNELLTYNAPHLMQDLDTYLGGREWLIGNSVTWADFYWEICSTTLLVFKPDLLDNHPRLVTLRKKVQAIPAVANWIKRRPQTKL

Molecule `CCCCN1CC(CNC(=O)c2ccc(-c3cccc(F)c3)nc2)OCC1=O` (centres unmarked) [Example 70, N-[(4-Butyl-5-oxomorpholin-2-yl)methyl]-6-(3-fluorophenyl)nicotinamide] has an IC50 of 34.2 nM.
Work on `Cc1cnc(CN2CC(CNC(=O)c3ccc(-c4cccc(F)c4)nc3)OCC2=O)cn1` (centres unmarked) [Example 71, 6-(3-Fluorophenyl)-N-({4-[(5-methylpyrazin-2-yl)methyl]-5-oxomorpholin-2-yl}methyl)nicotinamide] yielded an IC50 of 61.8 nM.
`O=C(NC[C@@H]1CCCN2CCCC[C@H]12)c1ccc(-c2cccc(F)c2)nc1` [Example 73, 6-(3-Fluorophenyl)-N-[(1S,9aR)-octahydro-2H-quinolizin-1-ylmethyl]nicotinamide] gave an IC50 of 92.9 nM.
`CCN1CCC[C@@H]1CNC(=O)c1ccc(-c2cccc(F)c2)nc1` [Example 74, N-{[(2R)-1-Ethylpyrrolidin-2-yl]methyl}-6-(3-fluorophenyl) nicotinamide] was tested, and the IC50 was 42.3 nM.
Work on `O=C(NCCC1CCC(=O)N1CCN1CCCC1)c1ccc(-c2cccc(F)c2)nc1` (centres unmarked) [Example 75, 6-(3-Fluorophenyl)-N-{2-[5-oxo-1-(2-pyrrolidin-1-ylethyl)pyrrolidin-2-yl]ethyl}nicotinamide] yielded an IC50 of 48 nM.
Molecule `O=C(NCCOCc1nc2ccccc2[nH]1)c1ccc(-c2cccc(F)c2)nc1` [Example 76, N-[2-(1H-Benzimidazol-2-ylmethoxy)ethyl]-6-(3-fluorophenyl)nicotinamide] has an IC50 of 34.7 nM.
Work on `CN(C)CCCCCNC(=O)c1ccc(-c2cccc(F)c2)nc1` [Example 77, N-[5-(Dimethylamino)pentyl]-6-(3-fluorophenyl)nicotinamide] yielded an IC50 of 90.3 nM.
`O=C(N[C@@H](CO)c1ccccc1)c1ccc(-c2cccc(F)c2)nc1` [Example 78, 6-(3-Fluorophenyl)-N-[(1R)-2-hydroxy-1-phenylethyl] nicotinamide] gave an IC50 of 45 nM.
With `O=C(NCC(O)c1ccccc1F)c1ccc(-c2cccc(F)c2)nc1` (centres unmarked) [Example 79, 6-(3-Fluorophenyl)-N-[2-(2-fluorophenyl)-2-hydroxyethyl]nicotinamide] the IC50 was 10.3 nM.
Molecule `C[C@@H](NC(=O)c1ccc(-c2cccc(F)c2)nc1)[C@@H](O)c1ccccc1` [Example 81, 6-(3-Fluorophenyl)-N-[(1R,2S)-2-hydroxy-1-methyl-2-phenethyl]nicotinamide] has an IC50 of 41.2 nM.
`O=C(NCCn1nnc2ccccc21)c1ccc(-c2cccc(F)c2)nc1` [Example 82, N-[2-(1H-Benzotriazol-1-yl)ethyl]-6-(3-fluorophenyl)nicotinamide] gave an IC50 of 21.5 nM.
Work on `CC(C)c1noc(CNC(=O)c2ccc(-c3cccc(F)c3)nc2)n1` [Example 83, 6-(3-Fluorophenyl)-N-[(3-isopropyl-1,2,4-oxadiazol-5-yl)methyl]nicotinamide] yielded an IC50 of 72.8 nM.
In the case of `O=C(NCC1CCCN(c2ncc3c(n2)CCOC3)C1)c1ccc(-c2cccc(F)c2)nc1` (centres unmarked) [Example 84, N-{[1-(7,8-Dihydro-5H-pyrano[4,3-d]pyrimidin-2-yl)piperidin-3-yl]methyl}-6-(3-fluorophenyl)nicotinamide], the IC50 is reported as 13.8 nM.
`Cc1ncsc1CCCNC(=O)c1ccc(-c2cccc(F)c2)nc1` [Example 85, 6-(3-Fluorophenyl)-N-[3-(4-methyl-1,3-thiazol-5-yl)propyl]nicotinamide] gave an IC50 of 4.88 nM.
For `CCc1nccn1CCCNC(=O)c1ccc(-c2cccc(F)c2)nc1` [Example 86, N-[3-(2-Ethyl-1H-imidazol-1-yl)propyl]-6-(3-fluorophenyl)nicotinamide], the IC50 was 14.8 nM.
For `Cc1noc(CC(NC(=O)c2ccc(-c3cccc(F)c3)nc2)c2ccccc2)n1` (centres unmarked) [Example 87, 6-(3-Fluorophenyl)-N-[2-(3-methyl-1,2,4-oxadiazol-5-yl)-1-phenylethyl]nicotinamide], the IC50 was 35.8 nM.
Work on `O=C(NCCc1nnc(C2CC2)[nH]1)c1ccc(-c2cccc(F)c2)nc1` [Example 88, N-[2-(5-Cyclopropyl-4H-1,2,4-triazol-3-yl)ethyl]-6-(3-fluorophenyl)nicotinamide] yielded an IC50 of 9.06 nM.
`CN1CCc2nc(N3CCCC(CNC(=O)c4ccc(-c5cccc(F)c5)nc4)C3)ncc2C1` (centres unmarked) [Example 89, 6-(3-Fluorophenyl)-N-{[1-(6-methyl-5,6,7,8-tetrahydropyrido[4,3-d]pyrimidin-2-yl)piperidin-3-yl]methyl}nicotinamide] showed an IC50 of 6.13 nM.
`CN1CCc2nc(N3CCC(NC(=O)c4ccc(-c5cccc(F)c5)nc4)C3)ncc2C1` (centres unmarked) [Example 90, 6-(3-Fluorophenyl)-N-[1-(6-methyl-5,6,7,8-tetrahydropyrido[4,3-d]pyrimidin-2-yl)pyrrolidin-3-yl]nicotinamide] was tested, and the IC50 was 0.852 nM.
Work on `Cc1noc(C)c1CCCNC(=O)c1ccc(-c2cccc(F)c2)nc1` [Example 91, N-[3-(3,5-Dimethylisoxazol-4-yl)propyl]-6-(3-fluorophenyl)nicotinamide] yielded an IC50 of 6.44 nM.
`Cc1ccn(CCNC(=O)c2ccc(-c3cccc(F)c3)nc2)n1` [Example 92, 6-(3-Fluorophenyl)-N-[2-(3-methyl-1H-pyrazol-1-yl)ethyl]nicotinamide] showed an IC50 of 18.7 nM.
Work on `O=C(NCCc1nccs1)c1ccc(-c2cccc(F)c2)nc1` [Example 93, 6-(3-Fluorophenyl)-N-[2-(1,3-thiazol-2-yl)ethyl]nicotinamide] yielded an IC50 of 12.5 nM.
Work on `Cc1cn2cc(CNC(=O)c3ccc(-c4cccc(F)c4)nc3)nc2s1` [Example 94, 6-(3-Fluorophenyl)-N-[(2-methylimidazo[2,1-b][1,3]thiazol-6-yl)methyl]nicotinamide] yielded an IC50 of 14.8 nM.
Work on `Cc1cc(C)nc(CNC(=O)c2ccc(-c3cccc(F)c3)nc2)n1` [Example 95, N-[(4,6-Dimethylpyrimidin-2-yl)methyl]-6-(3-fluorophenyl)nicotinamide] yielded an IC50 of 95.7 nM.
`Cc1nnc(CNC(=O)c2ccc(-c3cccc(F)c3)nc2)o1` [Example 96, 6-(3-Fluorophenyl)-N-[(5-methyl-1,3,4-oxadiazol-2-yl)methyl]nicotinamide] showed an IC50 of 175 nM.
`CN1CCCCC1CNC(=O)c1ccc(-c2cccc(F)c2)nc1` (centres unmarked) [Example 97, 6-(3-Fluorophenyl)-N-[(1-methylpiperidin-2-yl)methyl]nicotinamide] gave an IC50 of 153 nM.
Molecule `Cc1cc(C(F)(F)F)nc(CNC(=O)c2ccc(-c3cccc(F)c3)nc2)n1` [Example 98, 6-(3-Fluorophenyl)-N-{[4-methyl-6-(trifluoromethyl)pyrimidin-2-yl]methyl}nicotinamide] has an IC50 of 146 nM.
Work on `O=C(NCc1nncn1C1CCCCC1)c1ccc(-c2cccc(F)c2)nc1` [Example 99, N-[(4-Cyclohexyl-4H-1,2,4-triazol-3-yl)methyl]-6-(3-fluorophenyl)nicotinamide] yielded an IC50 of 31.5 nM.
Molecule `O=C(NCc1cn2ccccc2n1)c1ccc(-c2cccc(F)c2)nc1` [Example 100, 6-(3-Fluorophenyl)-N-(imidazo[1,2-a]pyridin-2-ylmethyl)nicotinamide] has an IC50 of 12.8 nM.
`O=C(NCC1CCCN(c2ncccn2)C1)c1ccc(-c2cccc(F)c2)nc1` (centres unmarked) [Example 101, 6-(3-Fluorophenyl)-N-[(1-pyrimidin-2-ylpiperidin-3-yl)methyl]nicotinamide] was tested, and the IC50 was 17.4 nM.
`CCN(CC)CCCCNC(=O)c1ccc(-c2cccc(F)c2)nc1` [Example 102, N-[4-(Diethylamino)butyl]-6-(3-fluorophenyl)nicotinamide] was tested, and the IC50 was 86.3 nM.
`CN1CCN(CC(CNC(=O)c2ccc(-c3cccc(F)c3)nc2)c2ccccc2)CC1` (centres unmarked) [Example 103, 6-(3-Fluorophenyl)-N-[3-(4-methylpiperazin-1-yl)-2-phenylpropyl]nicotinamide] showed an IC50 of 316 nM.
Molecule `O=C(NCCNc1nccn2ccnc12)c1ccc(-c2cccc(F)c2)nc1` [Example 104, 6-(3-Fluorophenyl)-N-[2-(imidazo[1,2-a]pyrazin-8-ylamino)ethyl]nicotinamide] has an IC50 of 3.43 nM.
`O=C(NCC1CN(CCc2ccccn2)C(=O)CO1)c1ccc(-c2cccc(F)c2)nc1` (centres unmarked) [Example 105, 6-(3-Fluorophenyl)-N-{[5-oxo-4-(2-pyridin-2-ylethyl)morpholin-2-yl]methyl}nicotinamide] showed an IC50 of 58.6 nM.
In the case of `CC(C)N1CCN(CCCNC(=O)c2ccc(-c3cccc(F)c3)nc2)C(=O)C1=O` [Example 106, 6-(3-Fluorophenyl)-N-[3-(4-isopropyl-2,3-dioxopiperazin-1-yl)propyl]nicotinamide], the IC50 is reported as 34.3 nM.
Molecule `O=C(NCC1CCCN(c2nc(C(F)F)cc(=O)[nH]2)C1)c1ccc(-c2cccc(F)c2)nc1` (centres unmarked) [Example 107, N-({1-[4-(Difluoromethyl)-6-oxo-1,6-dihydropyrimidin-2-yl]piperidin-3-yl}methyl)-6-(3-fluorophenyl)nicotinamide] has an IC50 of 15.4 nM.
`CC(C)(C)C(=O)CNC(=O)c1ccc(-c2cccc(F)c2)nc1` [Example 108, N-(3,3-Dimethyl-2-oxobutyl)-6-(3-fluorophenyl)nicotinamide] showed an IC50 of 29.6 nM.
Work on `Cc1cc(=O)[nH]c(N2CCC(CNC(=O)c3ccc(-c4cccc(F)c4)nc3)CC2)n1` [Example 109, 6-(3-Fluorophenyl)-N-{[1-(4-methyl-6-oxo-1,6-dihdyropyrimidin-2-yl)piperidin-4-yl]methyl}nicotinamide] yielded an IC50 of 34.5 nM.
